# Test results published in patent US7999006B2, “Methods of using MEK inhibitors” (Exelixis, Inc., priority 2006, dated 2011).
# Tested on: WM-266-4 xenograft tumors
# Experiment: WM-266-4 human melanoma xenograft model
# Assay type: in vivo
# Conditions: WM-266-4 xenograft tumors in female nude mice, staged at 112±6 mg; MEK compound 10 mg/kg PO qd x 14 (AM); rapamycin 5 mg/kg IP qd x 14 (PM); single agents or combination
# Protocol: For subcutaneous or intradermal tumors, the mean tumor weight of each animal in the respective control and treatment groups was determined twice weekly during the study. Tumor weight (TW) was determined by measuring perpendicular diameters with a caliper, using the following formula: tumor weight (mg)=[tumor volume=length (mm)×width^2 (mm^2)]/2.
# Percent inhibition of tumor growth (TGI) is determined with the following formula:
# [formula] where X0=average TW of all tumors on group day; Xf=TW of treated group on Day f; Yf=TW of vehicle control group on Day f
# [formula] TGI is calculated individually for each tumor to obtain a mean±SEM value for each experimental group. Statistical significance is determined using the 2-tailed Student's t-test (significance defined as P<0.05).
# The WM-266-4 human melanoma cell line is PTEN-deficient, and harbors a heterozygous activating mutation in the gene encoding B-Raf. Therefore, the ability of a MEK inhibitor administered as monotherapy, and in combination with the mTOR inhibitor rapamycin, was examined to inhibit the growth of WM-266-4 xenograft tumors in nude mice.
# Tumors were established in female nude mice and staged when the tumors reached 112±6 mg. […]
structure (smiles),measurement,value
"CO[C@H]1C[C@@H]2CC[C@@H](C)[C@@](O)(O2)C(=O)C(=O)N2CCCC[C@H]2C(=O)O[C@H]([C@H](C)C[C@@H]2CC[C@@H](O)[C@H](OC)C2)CC(=O)[C@H](C)/C=C(\C)[C@@H](O)[C@@H](OC)C(=O)[C@H](C)C[C@H](C)/C=C/C=C/C=C/1C [Rapamycin, rapamycin]","TGI (%), tumor growth inhibition",60%
